Active and inactive are the calls of the source. No cut-off for these calls is given here.
Tests used:
Format in all cases: nucleic-acid assay
RNA [1] = test: Binding affinity to CAG repeat RNA terminal (unknown origin)
RNA [2] = test: Binding affinity to CAG repeat RNA overhang (unknown origin)
RNA [3] = test: Binding affinity to (CAG)10 repeat RNA (unknown origin) at 2 uM by SPR analysis
RNA [4] = test: Binding affinity to (CAG)10 repeat RNA (unknown origin) assessed as dissociation rate constant by SPR analysis
RNA [5] = test: Binding affinity to 5' (CAG)2 repeat RNA overhang (unknown origin) by SPR analysis; conditions: dose 0.063-2 µM
RNA [6] = test: Binding affinity to (CAG)10 repeat RNA (unknown origin) at 20 uM by CSI-TOF MS analysis
RNA [7] = test: Binding affinity to 5' (CAG)2 repeat RNA overhang (unknown origin) at 2 uM by SPR analysis
RNA [8] = test: Binding affinity to 5' (CAG)3 repeat RNA overhang (unknown origin) at 2 uM by SPR analysis
RNA [9] = test: Binding affinity to (CAG)10 repeat RNA (unknown origin) assessed as dissociation constant by SPR analysis
RNA [10] = test: Binding affinity to 3' (CAG) repeat RNA hairpin loop (unknown origin) at 2 uM by SPR analysis
RNA [11] = test: Binding affinity to (CAG)10 repeat RNA internal loop (unknown origin) by SPR analysis
RNA [12] = test: Binding affinity to (CAG)2 repeat RNA (unknown origin) at 0.063 to 2 uM by SPR analysis; conditions: dose 0.063-2 µM
RNA [13] = test: Binding affinity to (CAG)10 repeat RNA (unknown origin) assessed as association constant by SPR analysis
RNA [14] = test: Binding affinity to (CAG)3 repeat RNA hairpin loop (unknown origin) by SPR analysis; conditions: dose 0.063-2 µM
RNA [15] = test: Binding affinity to (CAG)2 repeat RNA hairpin loop (unknown origin) by SPR analysis
RNA [16] = test: Binding affinity to 5' (CAG)3 repeat RNA overhang (unknown origin) by SPR analysis; conditions: dose 0.063-2 µM
RNA [17] = test: Binding affinity to 5' (CAG) repeat RNA hairpin loop (unknown origin) at 2 uM by SPR analysis
RNA [18] = test: Binding affinity to (CAG)3 repeat RNA (unknown origin) at 0.063 to 2 uM by SPR analysis; conditions: dose 0.063-2 µM
RNA [19] = test: Binding affinity to (CAG)10 repeat RNA (unknown origin) by SPR analysis; conditions: dose 1.0 µM
RNA [20] = test: Binding affinity to 3' (CAG)2 repeat RNA overhang (unknown origin) at 0.063 to 2 uM by SPR analysis; conditions: dose 0.063-2 µM

Cc1ccc2ccc(NC(=O)CCNCCC(=O)NCc3ccc4ccc(=O)[nH]c4n3)nc2n1 was tested, and the Activity (RNA [1]) was “inactive”, the Activity (RNA [2]) was “inactive” and the Activity (RNA [3]) was “inactive”.
In the case of Cc1ccc2ccc(NC(=O)CCN(CCCCCN(CCC(=O)NCc3ccc4ccc(=O)[nH]c4n3)CCC(=O)Nc3ccc4ccc(C)nc4n3)CCC(=O)NCc3ccc4ccc(=O)[nH]c4n3)nc2n1, the Kdiss (RNA [4]) is reported as 2.9 10^-2/s, the Activity (RNA [5]) is reported as “Dose-Dependent Effect” and the Activity (RNA [6]) is reported as “Active”. The Activity (RNA [7]) was “inactive”, the Activity (RNA [8]) was “inactive” and the Kd (RNA [9]) was 6.1 µM. For the same compound, the Activity (RNA [10]) was “Active”, the Activity (RNA [11]) was “Active” and the Activity (RNA [12]) was “Active”. For the same compound, the Ka (RNA [13]) was 0.47 10^4/M/s, the Activity (RNA [14]) was “Dose-Dependent Effect” and the Activity (RNA [15]) was “inactive”. The Activity (RNA [16]) was “Dose-Dependent Effect”, the Activity (RNA [17]) was “Active” and the Activity (RNA [18]) was “Active”. The Activity (RNA [19]) was “Dose-Dependent Effect” and the Activity (RNA [20]) was “Active”.

From ChEMBL document CHEMBL5550085, “A new small molecule DoNA binding to CAG repeat RNA” (Bioorg Med Chem, 2024)
